Reference: patent EP0716856B1, “Therapeutic uses of 2',5'-oligoadenylate derivatives” (Temple University of the Commonwealth System of Higher …, priority 1988, dated 1989)

Molecular target: T1, HIV-1 reverse transcriptase (Human immunodeficiency virus type 1 group M subtype B, UniProt P04585)
T1 construct: used as a source of HIV-1 reverse transcriptase; endogenous in cells; host or cells: Virions pelleted from conditioned supernatant of H9 cells infected with HTLV-IIIB, lysed with Triton X-100
Experiment: Inhibition of HIV-1 reverse transcriptase activity in vitro (viral lysate, poly(A).(dT)15 template-primer, [3H]dTTP incorporation)
Format: biochemical
Details: Concentration 400 micromolar; 37°C, 1 h; read-out: Percent Inhibition
Procedure: Reverse Transcriptase Assays. Virus was concentrated from cell-free ([…]) conditioned H9/HTLV-IIIB culture supernatants by centrifugation at 18,000 r.p.m. for 4 h at 20°C in a Beckman JA-20 rotor. A viral pellet obtained from 50 ml of conditioned culture fluid was dissolved in 0.5 mL of a solution containing 17 mM Tris-HCl (pH 7.8), 3mM dithiothreitol (DTT), 55 mM KC1, 0.32% w/v Triton X-100, and 33% glycerol. This viral lysate was stored at -20°C and was used as a source of HIV-1 reverse transcriptase. Reverse transcriptase reactions were performed in 100 µL reaction volumes containing 40 mM Tris-HC1 (pH 7.8), 4 mM DTT, 50 mM KCl, 10 mM MgCl2, 0.0325% w/v Triton X-100, 3 micromolar [^33H]dTTP (80 Ci/mmol,NEN) and poly (A).(dT)15 (2.5 microgram/mL) template-primer after the addition of 10 microliter enzyme. Inhibitors were added at various concentrations after adjusting water volumes so that reaction volumes remained constant. Reactions were incubated at 37°C for 1 h in a humidified environment and terminated by adding 2 mL of 10% cold trichloroacetic acid. Precipitate was collected on 0.45 µm cellulose-acetate Millipore filters which were then dissolved in 10 mL of 3a70B aqueous scintillant and the counts per minute quantitated using a Beckman LS 6800 liquid scintillation spectrometer.

## Nc1ncnc2c1ncn2[C@@H]1O[C@H](CO)[C@@H](O)[C@H]1O [(adenosine) A, adenosine]
  inhibition at 400 µM: 0%

## Nc1ncnc2c1ncn2[C@@H]1O[C@H](CO)C[C@H]1O [cordycepin (C), 3'-deoxyadenosine]
  inhibition at 400 µM: 0%
